In BindingDB's records for doi:10.1021/jm960450v (National Cancer Institute-Bethesda, 1997):

How the values were obtained:
Integrase [1] = molecular target: T1, Integrase (Human immunodeficiency virus 1, UniProt Q7ZJM1); assay: Integration of DNA by HIV -1 integrase
Integrase [2] = molecular target: T1, Integrase; assay: Inhibitory activity against 3'-processing of DNA byHIV-1 integrase
Integrase [3] = molecular target: T1, Integrase; assay: Inhibitory activity against 3'-processing of DNA by HIV-1 integrase

T1 sequence (Q7ZJM1 whole entry): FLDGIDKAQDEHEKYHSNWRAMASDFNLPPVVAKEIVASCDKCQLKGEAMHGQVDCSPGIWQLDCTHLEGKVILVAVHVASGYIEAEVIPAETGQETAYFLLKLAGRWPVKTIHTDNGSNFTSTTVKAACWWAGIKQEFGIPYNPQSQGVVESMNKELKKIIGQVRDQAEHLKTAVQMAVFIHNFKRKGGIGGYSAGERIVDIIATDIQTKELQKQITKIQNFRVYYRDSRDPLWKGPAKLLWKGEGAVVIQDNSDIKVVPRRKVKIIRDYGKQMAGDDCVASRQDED

| Structure (SMILES) | IC50 (Integrase [1]) | IC50 (Integrase [2]) | IC50 (Integrase [3]) |
| --- | --- | --- | --- |
| O=c1oc2ccccc2c(O)c1C(c1cc(OCc2ccccc2)cc(OCc2ccccc2)c1)c1c(O)c2ccccc2oc1=O | 12 µM | – | – |
| O=c1oc2ccccc2c(O)c1C(c1ccc([N+](=O)[O-])cc1)c1c(O)c2ccccc2oc1=O | – | 50 µM | – |
| O=c1oc2ccccc2c(O)c1C(c1ccc(-c2ccccc2)cc1)c1c(O)c2ccccc2oc1=O | – | – | 14 µM |
| O=c1oc2ccccc2c(O)c1C(c1ccc2ccccc2c1)c1c(O)c2ccccc2oc1=O | 16 µM | – | 20 µM |
| CN(C)c1ccc(C(c2c(O)c3ccccc3oc2=O)c2c(O)c3ccccc3oc2=O)cc1 | 50 µM | 88 µM | 100 µM |
| O=c1oc2ccccc2c(O)c1C(c1ccco1)c1c(O)c2ccccc2oc1=O | – | – | 34 µM |
| O=c1oc2ccccc2c(O)c1C(c1cccs1)c1c(O)c2ccccc2oc1=O | – | – | 100 µM |
| O=c1oc2ccccc2c(O)c1C(c1ccc(OCc2ccccc2)cc1)c1c(O)c2ccccc2oc1=O [3-[4-benzyloxyphenyl(4-hydroxy-2-oxo-2H-3-chromenyl)methyl]-4-hydroxy-2H-2-chromenone] | – | – | 19 µM |
| O=c1oc2ccccc2c(O)c1C(c1ccc2c(c1)Cc1ccccc1-2)c1c(O)c2ccccc2oc1=O [3-[9H-2-fluorenyl(4-hydroxy-2-oxo-2H-3-chromenyl)methyl]-4-hydroxy-2H-2-chromenone] | – | – | 11 µM |
| O=c1oc2ccccc2c(O)c1Cc1cccc(Cc2c(O)c3ccccc3oc2=O)c1 [4-hydroxy-3-[3-(4-hydroxy-2-oxo-2H-3-chromenylmethyl)benzyl]-2H-2-chromenone] | – | – | 34 µM |
